The results in this text go back to patent US11253497B2, “Use of derivatives of polyunsaturated fatty acids as medicaments” (Lipopharma Therapeutics, S.L., priority 2009, dated 2022).

For one data set, the system named is lung cancer cells A549. As to the kind of experiment: Growth of lung cancer cells A549 (IC50). It is filed as cell-based, human. The conditions noted are these: 72 hours of incubation. Here is the method:
(§1) For the experiments shown in FIG. 1, cultured human Non Small Cell Lung Cancer cells (A549) in RPMI 1640 were used, supplemented with 10% foetal bovine serum and antibiotics, at 37° C. and 5% CO2. […] After treatment, cell count was performed and the study of the mechanisms involved in the antitumor activity of compounds was evaluated by flow cytometry. […] These values correspond to averages of three independent experiments.
(§2) These charts show the antitumor efficacy of the compounds of this invention against the growth of breast cancer cells, brain (glioma), and lung cancer. […] The other experimental conditions are identical to those described in the preceding paragraph.

The subject of data set [1] is brain cancer cell (glioma) U118. Put plainly: Brain cancer (glioma) U118 cell growth. Format: cell-based. The conditions noted are these: 72 hours of incubation. The protocol: For the experiments shown in FIG. 1, cultured human Non Small Cell Lung Cancer cells (A549) in RPMI 1640 were used, supplemented with 10% foetal bovine serum and antibiotics, at 37° C. and 5% CO2. Cells were maintained in culture for 48 hours in the presence or absence of D-PUFAs and PUFAs indicated in Table 2 at a concentration of 250 µM. After treatment, cell count was performed and the study of the mechanisms involved in the antitumor activity of compounds was evaluated by flow cytometry. […] These values correspond to averages of three independent experiments.
as §2

The subject of data set [2] is breast cancer cells MDA-MB-231. As to the kind of experiment: Growth of breast cancer cells MDA-MB-231. It is filed as cell-based. The following applies: 72 hours of incubation. Here is the method: as §1, §2
Data set [3] can be described thus: Lamellar-to-hexagonal (HII) transition temperature in DEPE model membranes by Differential Scanning Calorimetry. It is filed as physicochemical. The conditions noted are these: DEPE membranes, DEPE:D-PUFA 10:1 (mol:mol). The protocol:
The transition temperature was determined by Differential Scanning Calorimetry. The proportion DEPE:D-PUFA was 10:1 (mol:mol) in all cases. Lamellar-to-hexagonal transition is an important parameter that reflects relevant signalling properties of cell membranes. […] When this occurs, certain peripheral membrane proteins (such as G proteins, protein kinase C or Ras protein) can more easily bind to the membrane, while others have a poor interaction (e.g., the Gα-protein), so changes in the HII transition temperature are important in regulating cellular functions related to health and human therapy (Escriba et al., 1995, Vogler et al., 2004; Escriba, 2006).
Control values correspond to model membranes in the absence of fatty acids. The reduction in HII transition temperature obtained by using the D-PUFA of the invention indicates an increased induction of membrane discontinuities, generating anchoring sites in the membrane for peripheral proteins and leads to better regulation of cell signalling and, therefore, greater effectiveness in the control of certain diseases.
Background: In DSC, transitions show as peaks or steps in heat flow.

For `CCC=CCC=CCC=CCC=CCC=CCCC(F)C(=O)OCC` (stereo not drawn) [205T1], the IC50 was determined as 322 µM in the data set with lung cancer cells A549, 427 µM in data set [1] and 233 µM in data set [2].
Consider `CCCCCC=CCC=CCCCCCCC(Cl)C(=O)OCC` (stereo not drawn) [182O1], for which the 50% inhibitory concentration (IC50) in the data set on lung cancer cells A549 stood at 452 µM; in data set [2], 286 µM. This compound returned a Temperature of lamellar-to-hexagonal transition in data set [3] of 51.7 °C.
Regarding `CCCCCC=CCC=CCCCCCCC(C(=O)OCC)N(OCC)OCC` (stereo not drawn) [182W1], the IC50 with lung cancer cells A549 worked out at 416 µM; in data set [1] it was 246 µM; in data set [2], 391 µM.
In the case of `CCCCCC=CCC=CCC=CCC=CCCC(OC=O)C(=O)OC` (stereo not drawn) [204U1], the IC50 with lung cancer cells A549 is 270 µM; in data set [1] it was 263 µM; in data set [2], 369 µM.
The matching figures for `CCC=CCC=CCC=CCC=CCC=CCC=CCC(O)C(=O)O` (stereo not drawn) [226C1]: 214 µM, 237 µM and 210 µM.
`CCC=CCC=CCC=CCCCCCCC(O)C(=O)O` (stereo not drawn) [183C1]: the values for the IC50 (with lung cancer cells A549; in data set [2]) were 281 µM and 289 µM, respectively.
As for `CCCCCC=CCC=CCC=CCCCC(Cl)C(=O)OCC` (stereo not drawn) [183O2], the IC50 came to 318 µM with lung cancer cells A549 and 217 µM in data set [2]. The compound also returned a Temperature of lamellar-to-hexagonal transition in data set [3] of 51.3 °C.
Turning to `CCC=CCC=CCC=CCC=CCC=CCC=CCC(OC)C(=O)OC` (stereo not drawn) [226H1], the IC50 in the data set on lung cancer cells A549 was 247 µM; in data set [1] it was 294 µM; in data set [2], 199 µM.
The matching figures for `CCCCCC=CCC=CCCCCCCC(OC=O)C(=O)OC` (stereo not drawn) [182U1]: 255 µM, 212 µM and 410 µM.
Consider `CCCCCC=CCC=CCC=CCC=CCCC(OC)C(=O)OC` (stereo not drawn) [204H1], for which the 50% inhibitory concentration (IC50) in the data set on lung cancer cells A549 came out at 398 µM; in data set [1], 263 µM; in data set [2], 363 µM.
Regarding `CCCCCC=CCC=CCC=CCC=CCCC(OC(C)=O)C(=O)OC` (stereo not drawn) [204J1], the figures for the concentration for half-maximal inhibition (IC50) (in the data set with lung cancer cells A549; in data set [1]; in data set [2]) were 362 µM, 296 µM and 285 µM, respectively.
For `CCCCCC=CCC=CCC=CCC=CCCC(C)C(=O)OC` (stereo not drawn) [204M1] the same measures were 375 µM, 309 µM and 321 µM.
For `CCCCCC=CCC=CCC=CCC=CCCC(OC)C(=O)OCC` (stereo not drawn) [204I1] the same measures were 459 µM, 328 µM and 315 µM.
For the compound `CCC=CCC=CCC=CCCCCCCC(C(=O)OCC)N(OCC)OCC` (stereo not drawn) [183W1], the IC50 with lung cancer cells A549 came to 352 µM; in data set [2], 311 µM.
With `CCCCCC=CCC=CCC=CCC=CCCC(O)C(=O)O` (stereo not drawn) [204C1], the IC50 in the data set with lung cancer cells A549 was 521 µM; in data set [1], 287 µM; in data set [2] it was 389 µM.
For `CCCCCC=CCC=CCCCCCCC(OC)C(=O)OC` (stereo not drawn) [182H1] the same measures were 462 µM, 267 µM and 402 µM.
For `CCCCCC=CCC=CCCCCCCC(OC)C(=O)OCC` (stereo not drawn) [182I1] the same measures were 673 µM, 240 µM and 411 µM.
For `CCC=CCC=CCC=CCC=CCC=CCC=CCC(OC)C(=O)OCC` (stereo not drawn) [226I1] the same measures were 298 µM, 327 µM and 241 µM.
Turning to `CCCCCC=CCC=CCCCCCCC(F)C(=O)OCC` (stereo not drawn) [182T1], the IC50 in the data set on lung cancer cells A549 is 379 µM; in data set [1], 214 µM; in data set [2] it was 391 µM.
As for `CCCCCC=CCC=CCCCCCCC(CO)C(=O)OCC` (stereo not drawn) [182Q1], the figures for the IC50 (with lung cancer cells A549; in data set [2]) were 293 µM and 328 µM, respectively.
Take `CCC=CCC=CCC=CCC=CCC=CCCC(OC)C(=O)OCC` (stereo not drawn) [205I1]: the IC50 in the data set on lung cancer cells A549 amounted to 351 µM; in data set [1], 510 µM; in data set [2], 261 µM.
For `CCC=CCC=CCC=CCC=CCC=CCCC(C)C(=O)OC` (stereo not drawn) [205M1] the same measures were 293 µM, 462 µM and 216 µM.
Take `CCCCCC=CCC=CCC=CCCCC(CO)C(=O)OCC` (stereo not drawn) [183Q2]: the IC50 is 314 µM with lung cancer cells A549, 392 µM in data set [1] and 205 µM in data set [2].
`CCCCCC=CCC=CCC=CCCCC(OC)C(=O)OC` (stereo not drawn) [183H2]: the IC50 with lung cancer cells A549 turned out to be 219 µM; in data set [1], 443 µM; in data set [2], 170 µM.
For `CCCCCC=CCC=CCC=CCC=CCCC(C(=O)OCC)N(OCC)OCC` (stereo not drawn) [204W1] the same measures were 341 µM, 287 µM and 311 µM.
For `CCCCCC=CCC=CCC=CCCCC(OC)C(=O)OCC` (stereo not drawn) [183I2] the same measures were 276 µM, 432 µM and 210 µM.
The matching figures for `CCC=CCC=CCC=CCC=CCC=CCCC(CO)C(=O)OCC` (stereo not drawn) [205Q1]: 365 µM, 419 µM and 247 µM.
As to `CCCCCC=CCC=CCC=CCCCC(F)C(=O)OCC` (stereo not drawn) [183T2], the IC50 was found to be 279 µM with lung cancer cells A549, 423 µM in data set [1] and 216 µM in data set [2].
`CCCCCC=CCC=CCC=CCCCC(O)C(=O)O` (stereo not drawn) [183C2]: the IC50 was found to be 241 µM with lung cancer cells A549, 379 µM in data set [1] and 168 µM in data set [2].
For `CCC=CCC=CCC=CCCCCCCC(CO)C(=O)OCC` (stereo not drawn) [183Q1] the same measures were 273 µM, 282 µM and 312 µM.
Take `CCC=CCC=CCC=CCC=CCC=CCC=CCC(CO)C(=O)OCC` (stereo not drawn) [226Q1]: the half-maximal inhibitory concentration (IC50) was determined as 252 µM in the data set with lung cancer cells A549, 254 µM in data set [1] and 263 µM in data set [2].
For `CCC=CCC=CCC=CCCCCCCC(F)C(=O)OCC` (stereo not drawn) [183T1] the same measures were 367 µM, 368 µM and 290 µM.
As for `CCCCCC=CCC=CCC=CCC=CCCC(F)C(=O)OCC` (stereo not drawn) [204T1], the IC50 in the data set with lung cancer cells A549 was 352 µM; in data set [1], 385 µM; in data set [2], 317 µM.
The matching figures for `CCC=CCC=CCC=CCC=CCC=CCC=CCC(C)C(=O)OC` (stereo not drawn) [226M1]: 208 µM, 306 µM and 267 µM.
The matching figures for `CCC=CCC=CCC=CCC=CCC=CCCC(O)C(=O)O` (stereo not drawn) [205C1]: 325 µM, 442 µM and 223 µM.
For `CCCCCC=CCC=CCCCCCCC(C)C(=O)OC` (stereo not drawn) [182M1] the same measures were 286 µM, 238 µM and 362 µM.
Turning to `CCC=CCC=CCC=CCC=CCC=CCC=CCC(F)C(=O)OCC` (stereo not drawn) [226T1], the IC50 is 243 µM in the data set with lung cancer cells A549, 263 µM in data set [1] and 199 µM in data set [2].
For `CCC=CCC=CCC=CCCCCCCC(OC)C(=O)OC` (stereo not drawn) [183H1] the same measures were 319 µM, 408 µM and 308 µM.
For `CCCCCC=CCC=CCC=CCC=CCCC(CO)C(=O)OCC` (stereo not drawn) [204Q1] the same measures were 348 µM, 324 µM and 306 µM.
The matching figures for `CCCCCC=CCC=CCC=CCCCC(OC=O)C(=O)OC` (stereo not drawn) [183U2]: 287 µM, 380 µM and 228 µM.
Consider `CCC=CCC=CCC=CCC=CCC=CCCC(OC=O)C(=O)OC` (stereo not drawn) [205U1], for which the IC50 was determined as 426 µM in the data set with lung cancer cells A549, 454 µM in data set [1] and 272 µM in data set [2].
Regarding `CCC=CCC=CCC=CCCCCCCC(OC=O)C(=O)OC` (stereo not drawn) [183U1], the figures for the IC50 (in the data set on lung cancer cells A549; in data set [1]; in data set [2]) were 294 µM, 343 µM and 344 µM, respectively.
For `CCCCCC=CCC=CCCCCCCC(O)C(=O)O` (stereo not drawn) [182C1] the same measures were 635 µM, 208 µM and 386 µM.
For `CCC=CCC=CCC=CCCCCCCC(OC)C(=O)OCC` (stereo not drawn) [183I1] the same measures were 348 µM, 321 µM and 274 µM.
The matching figures for `CCCCCC=CCC=CCC=CCCCC(C)C(=O)OC` (stereo not drawn) [183M2]: 248 µM, 407 µM and 164 µM.
For the compound `CCC=CCC=CCC=CCCCCCCC(C)C(=O)OC` (stereo not drawn) [183M1], the figures for the IC50 (with lung cancer cells A549; in data set [1]; in data set [2]) were 322 µM, 349 µM and 407 µM, respectively.
For `CCC=CCC=CCC=CCC=CCC=CCCC(C(=O)OCC)N(OCC)OCC` (stereo not drawn) [205W1], the figures for the IC50 (in the data set on lung cancer cells A549; in data set [1]; in data set [2]) were 420 µM, 443 µM and 256 µM, respectively.
The matching figures for `CCCCCC=CCC=CCC=CCCCC(C(=O)OCC)N(OCC)OCC` (stereo not drawn) [183W2]: 212 µM, 438 µM and 203 µM.
The matching figures for `CCC=CCC=CCC=CCC=CCC=CCCC(OC)C(=O)OC` (stereo not drawn) [205H1]: 290 µM, 439 µM and 282 µM.

In general, IC50 refers to the midpoint of a concentration-inhibition curve. Higher therefore signals lower potency.
